Source: patent US9695155B2, “Herbicidal substituted pyrimidinyloxy benzene compounds” (E. I. DU PONT DE NEMOURS AND COMPANY, priority 2013, dated 2017)

Tests used:
pigweed = assay: Test A postemergence; type: in vivo, Amaranthus retroflexus
Outline: (§1)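 Pre- and postemergence greenhouse screen. Soil: loam + sand. Spray carrier: solvent mixture, non-phytotoxic, with surfactant. Post timing at 1–2 leaves, height 2–10 cm. Readout: visual injury on a 0–100 scale roughly 10 days after application, untreated plants as reference.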

sedge, umbrella = assay: Test B flooded paddy test; type: in vivo, Cyperus difformis; settings: Flood, 250 g ai/ha, 0 to 100 scale where 0 is no effect and 100 is complete control
Outline: (§2)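 Post-emergence paddy-water application at the 2-leaf stage, with 3 cm flood kept for the whole test. Response was judged visually relative to controls after 13 to 15 greenhouse days, 0 indicating no effect and 100 complete control.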

chickweed = assay: Test C postemergence; type: in vivo, Stellaria media
Outline: (§3)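 Rated visually on 0–100 (100 = complete control) after 13–15 days under glass. Treatments went onto freshly seeded loam/sand soil or onto emerged plants at the 1- to 4-leaf stage, using a surfactant-containing solvent formulation.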

waterhemp = assay: Test C postemergence; type: in vivo, Amaranthus rudis; settings: for Waterhemp plant response rating: 31 g ai/ha
Outline: as §3

rice = assay: Test B flooded paddy test; type: in vivo, Oryza sativa; settings: Flood, 250 g ai/ha, 0 to 100 scale where 0 is no effect and 100 is complete control
Outline: as §2

galium = assay: Test C postemergence; type: in vivo, Galium aparine
Outline: as §3

giant foxtail [1] = assay: Test A preemergence; type: in vivo, Setaria faberii
Outline: as §1

giant foxtail [2] = assay: Test A postemergence; type: in vivo, Setaria faberii
Outline: as §1

lambsquarters = assay: Test C postemergence; type: in vivo, Chenopodium album; settings: for Lambsquarters plant response rating: 31 g ai/ha
Outline: as §3

Italian ryegrass = assay: Test C postemergence; type: in vivo, Lolium multiflorum; settings: for Ryegrass, Italian plant response rating: 31 g ai/ha
Outline: as §3

barnyardgrass = assay: Test B flooded paddy test; type: in vivo, Echinochloa crus-galli; settings: Flood, 250 g ai/ha, 0 to 100 scale where 0 is no effect and 100 is complete control
Outline: as §2

soybean = assay: Test C postemergence; type: in vivo, Glycine max; settings: for Soybean plant response rating: 31 g ai/ha
Outline: as §3

oilseed rape = assay: Test C postemergence; type: in vivo, Brassica napus; settings: for Oilseed Rape plant response rating: 31 g ai/ha
Outline: as §3

[3] = postemergence, visual rating, scale 0 to 100 (0 no effect, 100 complete control), 13 to 15 days
[4] = 125 g ai/ha, 0 to 100 scale, 0 no effect, 100 complete control
[5] = 500 g ai/ha, 0 to 100 scale where 0 is no effect and 100 is complete control
[6] = 16 g ai/ha, postemergence, 0 is no effect, 100 is complete control
[7] = 31 g ai/ha, postemergence, visual rating, scale 0 to 100 (0 no effect, 100 complete control), 13 to 15 days
[8] = 125 g ai/ha, postemergence, visual rating, scale 0 to 100 (0 no effect, 100 complete control)
[9] = Postemergence, 62 g ai/ha, scale 0 to 100 (0 no effect, 100 complete control), 13 to 15 days

Clc1cnc(Oc2ccccc2-n2cc(C3CC3)nn2)nc1 [Compound 160, 5-chloro-2-[2-(4-cyclopropyl-1H-1,2,3-triazol-1-yl)phenoxy]pyrimidine]
pest or weed control at 1000 g/ha (pigweed; Amaranthus retroflexus, post-emergence, 240 h, 1000 g ai/ha, 0 to 100 scale, 0 no effect, 100 complete control, read-out: Plant response rating Pigweed): 100%
pest or weed control at 250 g/ha (sedge, umbrella; Cyperus difformis, read-out: Plant response rating, Sedge, Umbrella): 75%
pest or weed control at 16 g/ha (chickweed; Stellaria media, post-emergence, 16 g ai/ha, postemergence, 0 is no effect, 100 is complete control, read-out: Plant response rating (0 to 100), Chickweed): 50%
pest or weed control at 31 g/ha (chickweed; Stellaria media, post-emergence, 31 g ai/ha, postemergence, visual rating, scale 0 to 100 (0 no effect, 100 complete control), 13 to 15 days, read-out: Chickweed plant response rating): 55%
pest or weed control at 125 g/ha (chickweed; Stellaria media, post-emergence, 125 g ai/ha, postemergence, visual rating, scale 0 to 100 (0 no effect, 100 complete control), read-out: Plant response rating, Chickweed): 70%
pest or weed control at 62 g/ha (chickweed; Stellaria media, post-emergence, Postemergence, 62 g ai/ha, scale 0 to 100 (0 no effect, 100 complete control), read-out: Plant response rating, Chickweed): 80%
Waterhemp plant response rating (waterhemp; [3]): 35
pest or weed control at 16 g/ha (waterhemp; Amaranthus tuberculatus, post-emergence, 16 g ai/ha, postemergence, 0 is no effect, 100 is complete control, read-out: Plant response rating (0 to 100), Waterhemp): 70%
pest or weed control at 125 g/ha (waterhemp; Amaranthus tuberculatus, post-emergence, 125 g ai/ha, postemergence, visual rating, scale 0 to 100 (0 no effect, 100 complete control), read-out: Plant response rating, Waterhemp): 85%
pest or weed control at 62 g/ha (waterhemp; Amaranthus tuberculatus, post-emergence, Postemergence, 62 g ai/ha, scale 0 to 100 (0 no effect, 100 complete control), read-out: Plant response rating, Waterhemp): 70%
plant injury at 250 g/ha (rice; Oryza sativa, read-out: Plant response rating, Rice): 35%
pest or weed control at 16 g/ha (galium; Galium, post-emergence, 16 g ai/ha, postemergence, 0 is no effect, 100 is complete control, read-out: Plant response rating (0 to 100), Galium): 80%
pest or weed control at 31 g/ha (galium; Galium, post-emergence, 31 g ai/ha, postemergence, visual rating, scale 0 to 100 (0 no effect, 100 complete control), 13 to 15 days, read-out: Galium plant response rating): 80%
pest or weed control at 125 g/ha (galium; Galium, post-emergence, 125 g ai/ha, postemergence, visual rating, scale 0 to 100 (0 no effect, 100 complete control), read-out: Plant response rating, Galium): 85%
pest or weed control at 62 g/ha (galium; Galium, post-emergence, Postemergence, 62 g ai/ha, scale 0 to 100 (0 no effect, 100 complete control), read-out: Plant response rating, Galium): 95%
pest or weed control at 1000 g/ha (giant foxtail [1]; Setaria faberi, pre-emergence, 240 h, 1000 g ai/ha, 0 to 100 scale, 0 no effect, 100 complete control, approx. 10 days, read-out: Foxtail, Giant plant response rating): 100%
pest or weed control at 1000 g/ha (giant foxtail [2]; Setaria faberi, post-emergence, 240 h, 1000 g ai/ha, 0 to 100 scale, 0 no effect, 100 complete control, read-out: Plant response rating Foxtail, Giant): 100%
Lambsquarters plant response rating (lambsquarters; [3]): 65
pest or weed control at 16 g/ha (lambsquarters; Chenopodium album, post-emergence, 16 g ai/ha, postemergence, 0 is no effect, 100 is complete control, read-out: Plant response rating (0 to 100), Lambsquarters): 65%
pest or weed control at 125 g/ha (lambsquarters; Chenopodium album, post-emergence, 125 g ai/ha, postemergence, visual rating, scale 0 to 100 (0 no effect, 100 complete control), read-out: Plant response rating, Lambsquarters): 95%
pest or weed control at 62 g/ha (lambsquarters; Chenopodium album, post-emergence, Postemergence, 62 g ai/ha, scale 0 to 100 (0 no effect, 100 complete control), read-out: Plant response rating, Lambsquarters): 70%
Ryegrass, Italian plant response rating (Italian ryegrass; [3]): 0
pest or weed control at 16 g/ha (Italian ryegrass; Lolium multiflorum, post-emergence, 16 g ai/ha, postemergence, 0 is no effect, 100 is complete control, read-out: Plant response rating (0 to 100), Ryegrass, Italian): 0%
pest or weed control at 125 g/ha (Italian ryegrass; Lolium multiflorum, post-emergence, 125 g ai/ha, postemergence, visual rating, scale 0 to 100 (0 no effect, 100 complete control), read-out: Plant response rating, Ryegrass, Italian): 5%
pest or weed control at 62 g/ha (Italian ryegrass; Lolium multiflorum, post-emergence, Postemergence, 62 g ai/ha, scale 0 to 100 (0 no effect, 100 complete control), read-out: Plant response rating, Ryegrass, Italian): 0%
pest or weed control at 250 g/ha (barnyardgrass; Echinochloa crus-galli, read-out: Plant response rating, Barnyardgrass): 35%
Soybean plant response rating (soybean; [3]): 55
Soybean plant response rating (crop injury, 0-100 scale) at 16 g/ha (soybean; Glycine max, post-emergence, 16 g ai/ha, postemergence, 0 is no effect, 100 is complete control): 40%
Soybean plant response rating (crop injury, 0-100 scale) at 125 g/ha (soybean; Glycine max, post-emergence, 125 g ai/ha, postemergence, visual rating, scale 0 to 100 (0 no effect, 100 complete control), read-out: Plant response rating, Soybean): 60%
Soybean plant response rating (crop injury, 0-100 scale) at 62 g/ha (soybean; Glycine max, post-emergence, Postemergence, 62 g ai/ha, scale 0 to 100 (0 no effect, 100 complete control)): 60%
Oilseed Rape plant response rating (oilseed rape; [3]): 55
plant injury at 16 g/ha (oilseed rape; Brassica napus, post-emergence, 16 g ai/ha, postemergence, 0 is no effect, 100 is complete control, read-out: Plant response rating (0 to 100), Oilseed Rape): 10%
plant injury at 125 g/ha (oilseed rape; Brassica napus, post-emergence, 125 g ai/ha, postemergence, visual rating, scale 0 to 100 (0 no effect, 100 complete control), read-out: Plant response rating, Oilseed Rape): 60%
plant injury at 62 g/ha (oilseed rape; Brassica napus, post-emergence, Postemergence, 62 g ai/ha, scale 0 to 100 (0 no effect, 100 complete control), read-out: Plant response rating, Oilseed Rape): 60%

N#Cc1cnn(-c2c(Oc3ncc(F)cn3)cccc2C(F)F)c1 [Compound 240]
Plant response rating, Pigweed (pigweed; [4]): 100
Plant response rating, Pigweed (pigweed; [5]): 100
Plant response rating, Sedge, Umbrella (sedge, umbrella): 30
Plant response rating (0 to 100), Chickweed (chickweed; [6]): 5
Chickweed plant response rating (chickweed; [7]): 5
Plant response rating, Chickweed (chickweed; [8]): 55
Plant response rating, Chickweed (chickweed; [9]): 55
Plant response rating (0 to 100), Waterhemp (waterhemp; [6]): 10
Waterhemp plant response rating (waterhemp; [3]): 25
Plant response rating, Waterhemp (waterhemp; [8]): 70
Plant response rating, Waterhemp (waterhemp; [9]): 55
Plant response rating, Rice (rice): 0
Plant response rating (0 to 100), Galium (galium; [6]): 35
Galium plant response rating (galium; [7]): 40
Plant response rating, Galium (galium; [8]): 70
Plant response rating, Galium (galium; [9]): 55
Foxtail, Giant plant response rating (0 to 100 scale) (giant foxtail [1]; 125 g ai/ha): 100
Foxtail, Giant plant response rating (giant foxtail [1]; [5]): 100
Plant response rating, Foxtail, Giant (giant foxtail [2]; [4]): 90
Plant response rating, Foxtail, Giant (giant foxtail [2]; [5]): 100
Plant response rating (0 to 100), Lambsquarters (lambsquarters; [6]): 15
Lambsquarters plant response rating (lambsquarters; [3]): 45
Plant response rating, Lambsquarters (lambsquarters; [8]): 90
Plant response rating, Lambsquarters (lambsquarters; [9]): 75
Plant response rating (0 to 100), Ryegrass, Italian (Italian ryegrass; [6]): 0
Ryegrass, Italian plant response rating (Italian ryegrass; [3]): 0
Plant response rating, Ryegrass, Italian (Italian ryegrass; [8]): 0
Plant response rating, Ryegrass, Italian (Italian ryegrass; [9]): 0
Plant response rating, Barnyardgrass (barnyardgrass): 0
Plant response rating (0 to 100), Soybean (soybean; [6]): 30
Soybean plant response rating (soybean; [3]): 40
Plant response rating, Soybean (soybean; [8]): 75
Plant response rating, Soybean (soybean; [9]): 60
Plant response rating (0 to 100), Oilseed Rape (oilseed rape; [6]): 30
Oilseed Rape plant response rating (oilseed rape; [3]): 35
Plant response rating, Oilseed Rape (oilseed rape; [8]): 60
Plant response rating, Oilseed Rape (oilseed rape; [9]): 55
